Each structure is given as a SMILES string.

T1 sequence (Q9Y233 716-1055): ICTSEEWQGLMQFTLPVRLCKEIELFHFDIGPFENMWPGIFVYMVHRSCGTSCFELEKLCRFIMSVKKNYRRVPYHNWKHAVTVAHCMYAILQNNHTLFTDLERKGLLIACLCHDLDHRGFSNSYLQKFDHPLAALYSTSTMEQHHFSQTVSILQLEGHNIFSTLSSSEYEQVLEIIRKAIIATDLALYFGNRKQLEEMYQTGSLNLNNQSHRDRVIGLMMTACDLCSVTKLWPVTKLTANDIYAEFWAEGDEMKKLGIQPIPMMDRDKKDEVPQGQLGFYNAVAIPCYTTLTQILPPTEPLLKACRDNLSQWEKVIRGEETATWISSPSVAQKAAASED

This assay addresses T1, PDE10A enzyme (Homo sapiens, UniProt Q9Y233).
T1 construct: made in house; host or cells: E. coli BL21(DE3)
Description: PDE10A inhibition assay. In kind it is biochemical. Particulars: 3H-labelled cAMP substrate 5 nM, SPA beads, one hr at room temperature. How it is done:
Active PDE10A enzyme is prepared in a number of ways for use in PDE assays (Loughney, K. et al. Gene 1999, 234, 109-117; Fujishige, K. et al. Eur J Biochem. 1999, 266, 1118-1127 and Soderling, S. et al. Proc. Natl. Acad. Sci. 1999, 96, 7071-7076). PDE10A can be expressed as full-length proteins or as truncated proteins, as long as they express the catalytic domain. PDE10A can be prepared in different cell types, for example insect cells or E. coli. An example of a method to obtain catalytically active PDE10A is as follows: The catalytic domain of human PDE10A (amino acids 440-779 from the sequence with accession number NP 006652) is amplified from total human brain total RNA by standard RT-PCR and is cloned into the BamH1 and Xho1 sites of the pET28a vector (Novagen). Expression in coil is performed according to standard protocols. Briefly, the expression plasmids are transformed into the BL21(DE3) E. coli strain, and 50 mL cultures inoculated with the cells allowed to grow to an OD600 of 0.4-0.6 before protein expression is induced with 0.5mM IPTG. Following induction, the cells are incubated overnight at room temperature, after which the cells are collected by centrifugation. Cells expressing PDE10A are resuspended in 12 mL (50 mM TRIS-HCl-pH8.0, 1 mM MgCl2 and protease inhibitors). The cells are lysed by sonication, and after all cells are lysed, TritonX100 is added according to Novagen protocols.
A PDE10A assay may for example, be performed as follows: The assay is performed in 60 uL samples containing a fixed amount of the relevant PDE enzyme (sufficient to convert 20-25% of the cyclic nucleotide substrate), a buffer (50 mM HEPES7.6; 10 mM MgCl2; 0.02% Tween20), 0.1 mg/mI BSA, 225 pCi of ^3H-labelled cyclic nucleotide substrate, tritium labeled cAMP to a final concentration of 5 nM and varying amounts of inhibitors. Reactions are initiated by addition of the cyclic nucleotide substrate, and reactions are allowed to proceed for one hr at room temperature before being terminated through mixing with 15 uL 8 mg/mL yttrium silicate SPA beads (Amersham). The beads are allowed to settle for one hr in the dark before the plates are counted in a Wallac 1450 Microbeta counter. The measured signal can be converted to activity relative to an uninhibited control (100%) and IC50 values can be calculated using the XIfit extension to EXCEL.
For `COc1ccc(C)n2nc(CCc3nc(-c4ccccc4)nn3C(C)C)nc12` [2-[2-(2-Isopropyl-5-phenyl-2H-[1,2,4]triazol-3-yl)-ethyl]-8-methoxy-5-methyl-[1,2,4]triazolo[1,5-a]pyridine], the IC50 was 56 nM.
`Cc1ncc(C)n2nc(CCc3nc(-c4ccco4)n(C)n3)nc12` [2-[2-(5-Furan-2-yl-1-methyl-1H-[1,2,4]triazol-3-yl)-ethyl]-5,8-dimethyl-[1,2,4]triazolo[1,5-a]pyrazine] registered an IC50 of 38 nM.
Regarding `Cc1ncc(C)n2nc(CCc3nc(-c4ccco4)nn3C)nc12` [2-[2-(5-Furan-2-yl-2-methyl-2H-[1,2,4]triazol-3-yl)-ethyl]-5,8-dimethyl-[1,2,4]triazolo[1,5-a]pyrazine], the IC50 stood at 4.6 nM.
Turning to `Cc1ncc(C)n2nc(/C=C/c3nc(-c4ccco4)n(C)n3)nc12` [2-[(E)-2-(5-Furan-2-yl-1-methyl-1H-[1,2,4]triazol-3-yl)-vinyl]-5,8-dimethyl-[1,2,4]triazolo[1,5-a]pyrazine], the midpoint of inhibition, the IC50, lay at 60 nM.
In the case of `COCCn1nc(-c2ccccc2)nc1CCc1nc2c(C)ncc(C)n2n1` [2-{2-[2-(2-Methoxy-ethyl)-5-phenyl-2H-[1,2,4]triazol-3-yl]-ethyl}-5,8-dimethyl-[1,2,4]triazolo[1,5-a]pyrazine] it was 14 nM; in that of `Cc1ncc(C)n2nc(CCc3nc(-c4ccccc4)nn3CCO)nc12` [2-{5-[2-(5,8-Dimethyl-[1,2,4]triazolo[1,5-a]pyrazin-2-yl)-ethyl]-3-phenyl-[1,2,4]triazol-1-yl}-ethanol], 69 nM.
`COc1ccc(C)n2nc(CCc3nc(-c4ccccc4)nn3CCO)nc12` [2-{5-[2-(8-Methoxy-5-methyl-[1,2,4]triazolo[1,5-a]pyridin-2-yl)-ethyl]-3-phenyl-[1,2,4]triazol-1-yl}-ethanol]: the IC50 came to 23 nM.
Turning to `CCc1ccc(C)n2nc(CCc3nc(-c4ccccc4)cn3CCCN)nc12` [3-{2-[2-(8-Ethyl-5-methyl-[1,2,4]triazolo[1,5-a]pyridin-2-yl)-ethyl]-4-phenyl-imidazol-1-yl}-propylamine], the 50% inhibitory concentration (IC50) came to 150 nM.
With `Cc1ncc(C)n2nc(CCc3nc(-c4ccccc4)nn3CCC#N)nc12` [3-{5-[2-(5,8-Dimethyl-[1,2,4]triazolo[1,5-a]pyrazin-2-yl)-ethyl]-3-phenyl-[1,2,4]triazol-1-yl}-propionitrile] the figure was 25 nM; with `Cc1ncc(C)n2nc(CCc3nc(-c4ccccc4)nn3CCCN)nc12` [3-{5-[2-(5,8-Dimethyl-[1,2,4]triazolo[1,5-a]pyrazin-2-yl)-ethyl]-3-phenyl-[1,2,4]triazol-1-yl}-propylamine], 100 nM; with `CCc1ccc(C)n2nc(CCc3nc(-c4ccccc4)nn3CCC#N)nc12` [3-{5-[2-(8-Ethyl-5-methyl-[1,2,4]triazolo[1,5-a]pyridin-2-yl)-ethyl]-3-phenyl-[1,2,4]triazol-1-yl}-propionitrile], 14 nM.
In turn, `COc1ccc(C)n2nc(CCc3nc(-c4ccccc4)nn3CCC#N)nc12` [3-{5-[2-(8-Methoxy-5-methyl-[1,2,4]triazolo[1,5-a]pyridin-2-yl)-ethyl]-3-phenyl-[1,2,4]triazol-1-yl}-propionitrile] had an IC50 of 45 nM.
As to `Cc1cc(C)n2nc(CCc3nc(-c4ccccc4)nn3C)nc2n1` [5,7-Dimethyl-2-[2-(2-methyl-5-phenyl-2H-[1,2,4]triazol-3-yl)-ethyl]-[1,2,4]triazolo[1,5-a]pyrimidine], the IC50 was 59 nM.
`Cc1ncc(C)n2nc(CSc3nc(-c4ccccc4)n[nH]3)nc12` [5,8-Dimethyl-2-(5-phenyl-2H-[1,2,4]triazol-3-ylsulfanylmethyl)-[1,2,4]triazolo[1,5-a]pyrazine] returned an IC50 of 53 nM.
As for `Cc1ncc(C)n2nc(CCc3nc(-c4ncco4)nn3C)nc12` [5,8-Dimethyl-2-[2-(2-methyl-5-oxazol-2-yl-2H-[1,2,4]triazol-3-yl)-ethyl]-[1,2,4]triazolo[1,5-a]pyrazine], the IC50 was found to be 120 nM.
As for `Cc1ncc(C)n2nc(CCc3nc(-c4ccccc4)nn3C)nc12` [5,8-Dimethyl-2-[2-(2-methyl-5-phenyl-2H-[1,2,4]triazol-3-yl)-ethyl]-[1,2,4]triazolo[1,5-a]pyrazine], the IC50 came to 15 nM.
The compound `Cc1ccc(C)n2nc(CCc3nc(-c4ccccc4)nn3C)nc12` [5,8-Dimethyl-2-[2-(2-methyl-5-phenyl-2H-[1,2,4]triazol-3-yl)-ethyl]-[1,2,4]triazolo[1,5-a]pyridine] came in with an IC50 of 6.7 nM.
Consider `Cc1cnc(C)n2nc(CCc3nc(-c4ccccc4)nn3C)nc12` [5,8-Dimethyl-2-[2-(2-methyl-5-phenyl-2H-[1,2,4]triazol-3-yl)-ethyl]-[1,2,4]triazolo[1,5-c]pyrimidine], for which the midpoint of inhibition, the IC50, lay at 36 nM.
As for `Cc1ncc(C)n2nc(CCc3nc(-c4ccccn4)nn3C)nc12` [5,8-Dimethyl-2-[2-(2-methyl-5-pyridin-2-yl-2H-[1,2,4]triazol-3-yl)-ethyl]-[1,2,4]triazolo[1,5-a]pyrazine], half-maximal inhibition (IC50) was put at 39 nM.
With `Cc1ncc(C)n2nc(CCc3nc(-c4cccnc4)nn3C)nc12` [5,8-Dimethyl-2-[2-(2-methyl-5-pyridin-3-yl-2H-[1,2,4]triazol-3-yl)-ethyl]-[1,2,4]triazolo[1,5-a]pyrazine] the figure was 110 nM; with `Cc1ncc(C)n2nc(CCc3nc(-c4ncccn4)nn3C)nc12` [5,8-Dimethyl-2-[2-(2-methyl-5-pyrimidin-2-yl-2H-[1,2,4]triazol-3-yl)-ethyl]-[1,2,4]triazolo[1,5-a]pyrazine], 53 nM.
In turn, `Cc1ncc(C)n2nc(CCc3nc(-c4nccs4)nn3C)nc12` [5,8-Dimethyl-2-[2-(2-methyl-5-thiazol-2-yl-2H-[1,2,4]triazol-3-yl)-ethyl]-[1,2,4]triazolo[1,5-a]pyrazine] registered an IC50 of 36 nM.
Consider `Cc1ncc(C)n2nc(CCc3nc(-c4cscn4)nn3C)nc12` [5,8-Dimethyl-2-[2-(2-methyl-5-thiazol-4-yl-2H-[1,2,4]triazol-3-yl)-ethyl-]-[1,2,4]triazolo[1,5-a]pyrazine], for which it took 25 nM to reach half-maximal inhibition (IC50).
For `Cc1ncc(C)n2nc(CCc3nc(-c4cncs4)nn3C)nc12` [5,8-Dimethyl-2-[2-(2-methyl-5-thiazol-5-yl-2H-[1,2,4]triazol-3-yl)-ethyl]-[1,2,4]triazolo[1,5-a]pyrazine], half-maximal inhibition (IC50) required 26 nM.
On to `Cc1ncc(C)n2nc(CCc3nc(-c4cccs4)nn3C)nc12` [5,8-Dimethyl-2-[2-(2-methyl-5-thiophen-2-yl-2H-[1,2,4]triazol-3-yl)-etnyl]-[1,2,4]triazolo[1,5-a]pyrazine], for which the IC50 came out at 5.6 nM.
Turning to `Cc1ncc(C)n2nc(CCc3nc(-c4ccsc4)nn3C)nc12` [5,8-Dimethyl-2-[2-(2-methyl-5-thiophen-3-yl-2H-[1,2,4]triazol-3-yl)-ethyl]-[1,2,4]triazolo[1,5-a]pyrazine], it took 5.3 nM to reach half-maximal inhibition (IC50).
In the case of `Cc1csc(-c2nc(CCc3nc4c(C)ncc(C)n4n3)n(C)n2)n1` [5,8-Dimethyl-2-{2-[2-methyl-5-(4-methyl-thiazol-2-yl)-2H-[1,2,4]triazol-3-yl]-ethyl}-[1,2,4]triazolo[1,5-a]pyrazine], the IC50 was 76 nM.
In the case of `Cc1cnc(-c2nc(CCc3nc4c(C)ncc(C)n4n3)n(C)n2)s1` [5,8-Dimethyl-2-{2-[2-methyl-5-(5-methyl-thiazol-2-yl)-2H-[1,2,4]triazol-3-yl]-ethyl}-[,2,4]triazolo[1,5-a]pyrazine] it was 120 nM.

Usually IC50 stands for the concentration at which inhibition is half-maximal.

The values above are taken from patent US8785653B2, “(3-aryl-1H-1,2,4-triazol-5-yl)-linked heterocycle derivatives” (H. Lundbeck A/S, priority 2009, dated 2014).
